{"source": "ChEMBL document CHEMBL2073835", "about": "“Apical uptake of organic cations by human intestinal Caco-2 cells: putative involvement of ASF transporters” (Naunyn Schmiedebergs Arch Pharmacol, 2001)", "biological_target": "T1, Solute carrier family 22 member 3 (Homo sapiens, UniProt O75751)", "T1 sequence (O75751 whole entry)": "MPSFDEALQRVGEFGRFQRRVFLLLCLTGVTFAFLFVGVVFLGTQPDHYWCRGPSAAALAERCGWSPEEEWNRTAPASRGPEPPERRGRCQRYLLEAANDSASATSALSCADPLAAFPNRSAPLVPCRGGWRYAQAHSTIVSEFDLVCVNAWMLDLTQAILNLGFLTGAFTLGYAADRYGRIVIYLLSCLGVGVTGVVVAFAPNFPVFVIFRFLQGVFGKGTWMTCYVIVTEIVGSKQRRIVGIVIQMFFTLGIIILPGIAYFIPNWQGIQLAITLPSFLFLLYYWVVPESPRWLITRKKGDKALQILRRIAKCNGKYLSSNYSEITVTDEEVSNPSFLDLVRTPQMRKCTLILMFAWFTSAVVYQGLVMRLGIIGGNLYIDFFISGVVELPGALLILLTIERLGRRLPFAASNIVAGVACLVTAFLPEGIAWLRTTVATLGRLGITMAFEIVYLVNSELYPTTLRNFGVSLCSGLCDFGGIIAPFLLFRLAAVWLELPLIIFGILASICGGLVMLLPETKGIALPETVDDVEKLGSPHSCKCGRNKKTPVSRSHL", "assay": "TP_TRANSPORTER: inhibition of MPP+ uptake (MPP+: 0.2 uM) in OCT3-expressing HEK293 cells", "type": "functional, cell-based", "data": [{"compound": "Clc1cccc(Cl)c1N=C1NCCN1", "note": "[CLONIDINE]", "values": [{"measurement": "IC50", "value": 79.3, "unit": "µM"}]}, {"compound": "CC[n+]1c(CC2C=C(C)N=C(c3ccccc3)N2C)ccc2ccccc21", "note": "(stereo not drawn) [Cyanine-863]", "values": [{"measurement": "IC50", "value": 1.76, "unit": "µM"}]}, {"compound": "CC[N+](CC)(CC)CC", "note": "[TETRYLAMMONIUM]", "values": [{"measurement": "IC50", "value": 10300, "unit": "µM"}]}]}
